In patent US20250151723A1, “FUNGICIDAL COMBINATION, COMPOSITION, AND USE THEREOF” (UPL MAURITIUS LIMITED, priority 2023, published 2025):
Like-named read-outs stand apart in the source and are kept apart here.

Assays:
[1] = tested on: Alternaria solani in tomato (early blight disease); experiment: Greenhouse efficacy on tomato early blight, lesion area at 4 dpi (Examples 1-3); assay type: in vivo
cucumber downy mildew [2] = experiment: Greenhouse efficacy on cucumber downy mildew (Example 4); assay type: in vivo
[3] = tested on: tomato late blight disease; assay type: in vivo
[4] = tested on: tomato early blight disease; experiment: Greenhouse efficacy on tomato early blight disease (Example 6); assay type: in vivo
[5] = tested on: Soybean Target Spot (Corynespora cassicola); experiment: Greenhouse trial on potted soybean plants, target spot (Example 8); assay type: in vivo
cucumber downy mildew [6] = experiment: Greenhouse efficacy on cucumber downy mildew (Example 9); assay type: in vivo
[7] = tested on: tomato early blight disease; experiment: Greenhouse trial on potted tomato plants, early blight (Example 10); assay type: in vivo
Early Blight = details: Tomato
Method: (§1) Following trials were conducted on crops (potted plants) infected with the pathogen/disease in a greenhouse trial.

Botrytis = experiment: Greenhouse trial on potted plants, Botrytis in pepper (Example 7)
Method: as §1

Target Spot = experiment: Greenhouse trial on potted plants, target spot in soybean (Example 7)
Method: as §1

[8] = 17.5 g/L, 700 g Cu/HA (standard)
[9] = 0.75 g/L, 30 g Cu/HA (standard)

For `O=C(O)c1ccccc1O` [Salicylic acid], which Observed efficacy % ([1]; Table 1, 20 g/HA of SA) is on record?
The Observed efficacy % was 13.3%.

And the Observed efficacy % ([1]; Table 2, 40 mg/L, 2.5 g SA/HA)?
Its Observed efficacy % is 23.4%.

And the Observed efficacy % ([1]; Table 2, 80 mg/L, 5 g SA/HA)?
Its Observed efficacy % is 22.1%.

And the Observed efficacy % ([1]; Table 2, 320 mg/L, 10 g/HA)?
The Observed efficacy % was −2.3%.

What about the Observed efficacy % ([1]; Table 2, 320 mg/L, 20 g/HA) of the same compound?
The Observed efficacy % was −2.7%.

What does the source list for `O=C([O-])c1ccccc1O.[K+]` [potassium salicylate]?
Observed efficacy % ([1]; Table 3, 410 mg/L): 5.8%; Observed efficacy (cucumber downy mildew [2]; 71 mg/L, 0.89 g SA/HA): 21.9; Observed efficacy % ([3]; 137 mg/L, 1.7 g SA/HA): 15.2%; Observed efficacy % ([4]; 310 mg/L, 3.875 g SA/HA): 2.2%; Observed efficacy % ([4]; 410 mg/L, 5.125 g SA/HA): 13.1%; Observed efficacy % ([4]; 620 mg/L, 7.75 g/HA): 11.4%; Efficacy (%) ([5]; 25 mg/L, 0.31 g KSA/ha): 19.5%; Efficacy (%) ([5]; 100 mg/L, 1.25 g KSA/ha): 12.4%; Efficacy (%) ([5]; 410 mg/L, 5.13 g KSA/ha): 1.8%; Efficacy (%) ([5]; 820 mg/L, 10.27 g KSA/ha): −6.1%; Efficacy (%) ([5]; 1.64 g/L, 20.54 g KSA/ha): −11.4%; Observed efficacy % (cucumber downy mildew [6]; 103 mg/L, 1.29 g KSA/HA): 14.0%; Observed efficacy % (cucumber downy mildew [6]; 137 mg/L, 1.71 g KSA/HA): −1.1%; Observed efficacy % (cucumber downy mildew [6]; 207 mg/L, 2.59 g KSA/HA): −2.7%; Observed efficacy % ([7]; 0.1 g/L, 1.25 gai/ha): 0.4%; Observed efficacy % ([7]; 0.41 g/L, 5.13 gai/ha): 2.3%; Observed efficacy % ([7]; 0.82 g/L, 10.25 gai/ha): 37.4%; Observed efficacy % ([7]; 1.64 g/L, 20.5 gai/ha): 34.4%; Efficacy (%) (Early Blight; 0.41 g/l, 5.13 gai/ha): −3%; Efficacy (%) (Botrytis; 0.025 g/l, 0.31 gai/ha (mancozeb and captan sections)): −5.2%; Efficacy (%) (Botrytis; 0.1 g/l, 1.25 gai/ha (mancozeb and captan sections)): −3.9%; Efficacy (%) (Botrytis; folpet section, 0.1 g/l, 1.25 gai/ha): 12%; Efficacy (%) (Target Spot; captan and folpet sections, 0.025 g/l, 0.31 gai/ha): 19.5%; Efficacy (%) (Target Spot; captan and folpet sections, 0.1 g/l, 1.25 gai/ha): 12.4%; Efficacy (%) (Target Spot; captan and folpet sections, 0.41 g/l, 5.13 gai/ha): 1.8%; Efficacy (%) (Target Spot; captan and folpet sections, 0.82 g/l, 10.25 gai/ha): −6.1%; Efficacy (%) (Target Spot; captan and folpet sections, 1.64 g/l, 20.5 gai/ha): −11.4%; Efficacy (%) (Target Spot; mancozeb section, 0.025 g/l, 0.31 gai/ha): 16.8%; Efficacy (%) (Target Spot; mancozeb section, 0.1 g/l, 1.25 gai/ha): 12.6%; Efficacy (%) (Target Spot; mancozeb section, 0.41 g/l, 5.13 gai/ha): 27.6%; Efficacy (%) (Target Spot; mancozeb section, 0.82 g/l, 10.25 gai/ha): −3.8%; Efficacy (%) (Target Spot; mancozeb section, 1.64 g/l, 20.5 gai/ha): 6.3%

With `O=C1C2CC=CCC2C(=O)N1SC(Cl)(Cl)Cl` (stereo not shown) [captan] as the compound, how does the “Efficacy (%)” value ([5]; 0.02 g/L, 1.56 g Captan/ha) read?
Its value is 0.4%.

What about the “Efficacy (%)” value ([5]; 6 g/L, 467 g Captan/ha (full recommended dose)) of the same compound?
The value was 100%.

What about the “Efficacy (%)” value (Botrytis; 0.002 g/l, 0.16 gai/ha) of the same compound?
The value was 20.4%.

How did the Observed efficacy % ([1]; Table 1, 150 g/HA of Cu) turn out when `O=S(=O)([O-])[O-].[Cu+2].[Cu+2].[Cu+2].[Cu+2].[OH-].[OH-].[OH-].[OH-].[OH-].[OH-]` [tribasic copper sulphate] was run?
The Observed efficacy % was 31%.

And the Observed efficacy % ([1]; Table 1, 700 g/HA of Cu (standard treatment))?
The Observed efficacy % was 88%.

And the Observed efficacy % ([1]; Table 2, 0.75 g/L, 150 g Cu/HA)?
Its Observed efficacy % is 40.2%.

And the Observed efficacy % ([1]; Table 2, 17.5 g/L, 700 g Cu/HA (standard))?
The Observed efficacy % was 86.9%.

And the Observed efficacy % ([1]; Table 3, 0.75 g/L)?
Its Observed efficacy % is 23%.

What about the Observed efficacy % ([1]; Table 3, 17.5 g/L (standard)) of the same compound?
The Observed efficacy % was 75%.

What about the Observed efficacy (cucumber downy mildew [2]; 0.13 g/L, 5.2 g Cu/HA) of the same compound?
Its Observed efficacy is −7.6.

What about the Observed efficacy (cucumber downy mildew [2]; [8]) of the same compound?
Its Observed efficacy is 94.9.

What about the Observed efficacy % ([3]; 0.25 g/L, 10 g Cu/HA) of the same compound?
Its Observed efficacy % is 18.5%.

What about the Observed efficacy % [3, 9] of the same compound?
The Observed efficacy % was 62.9%.

What about the Observed efficacy % ([4]; 0.75 g/L, 30 g Cu/HA) of the same compound?
The Observed efficacy % was 18.5%.

And the Observed efficacy % [4, 8]?
Its Observed efficacy % is 57.6%.

And the Observed efficacy % (cucumber downy mildew [6]; 0.25 g/L, 10 g Cu/HA)?
The Observed efficacy % was 50.7%.

And the Observed efficacy % (cucumber downy mildew [6]; [9])?
The Observed efficacy % was 96.7%.

For mancozeb, which “Efficacy (%)” value (Early Blight; 0.0187 g/l, 1.4 gai/ha) is on record?
Its value is −12.6%.

What about the “Efficacy (%)” value (Botrytis; 0.0168 g/l, 1.26 gai/ha) of the same compound?
Its value is 26.4%.

What about the “Efficacy (%)” value (Target Spot; 0.0075 g/l, 0.56 gai/ha) of the same compound?
The value was −6.6%.

For `O=C1c2ccccc2C(=O)N1SC(Cl)(Cl)Cl` [folpet], which “Efficacy (%)” value ([5]; 0.015 g/L, 0.63 g Folpet/ha) is on record?
The value was 34.7%.

And the “Efficacy (%)” value ([5]; 5 g/L, 208.5 g Folpet/ha (full recommended dose))?
The value was 98.4%.

What about the “Efficacy (%)” value (Botrytis; 0.002 ml/l, 0.1 gai/ha) of the same compound?
Its value is 9.3%.

What about the “Efficacy (%)” value (Target Spot; 0.015 g/l, 0.625 gai/ha) of the same compound?
The value was 34.7%.
